Data taken from patent US20220242870A1, “HETEROCYCLE-FUSED PYRIMIDINE DERIVATIVE AND USE THEREOF” (VORONOI Inc., priority 2019, published 2022).

Legend:
MCF-7 cells = test: Breast cancer cell line proliferation inhibitory activity (CellTiter-Glo 2.0); type: cell-based; settings: Homo sapiens, MCF7, 120 hours
Description: In order to evaluate the breast cancer cell line cell proliferation inhibitory activities of Examples according to the present invention, the following experiment was performed. Breast cancer cells of MCF-7 (Korean Cell Line Bank) were planted in a clear bottom white 96-well plate (Corning) so as to be 3×10^3/150 μl/well, and a culture solution comprising the compound continuously diluted in multiples of 3 at 12 concentrations (0.00001-2 mM) and a DMSO control group was added by 0.5 μl/well and treated so that the final concentration was 0.00005-10 μM, and then cultured in a 37° C. CO2 incubator for 120 hours. After 120 hours, the plate treated with the compound is taken out, and CellTiter-Glo® 2.0 Assay (Promega) solution is treated at 150 μl/well and then they mix well. They mix well at room temperature for 10 minutes or so, and the fluorescence is measured with a microplate reader. The data were expressed as a percentage in proportion to the vehicle standard treated cells, the GI50 (nM) values were calculated using GraphPad Prism 8.3.0 (GraphPad software Inc., San Diego), and the results were shown in Table 3 below.

human FLT3-ITD enzyme = molecular target: T1, human FLT3-ITD enzyme (Homo sapiens, UniProt P36888); test: FLT3 enzyme inhibitory ability (ADP-Glo kinase assay); type: biochemical; settings: human FLT3-ITD enzyme 10 ng, ATP 10 μM, 25° C. 1 hour
T1 sequence (P36888 1-993): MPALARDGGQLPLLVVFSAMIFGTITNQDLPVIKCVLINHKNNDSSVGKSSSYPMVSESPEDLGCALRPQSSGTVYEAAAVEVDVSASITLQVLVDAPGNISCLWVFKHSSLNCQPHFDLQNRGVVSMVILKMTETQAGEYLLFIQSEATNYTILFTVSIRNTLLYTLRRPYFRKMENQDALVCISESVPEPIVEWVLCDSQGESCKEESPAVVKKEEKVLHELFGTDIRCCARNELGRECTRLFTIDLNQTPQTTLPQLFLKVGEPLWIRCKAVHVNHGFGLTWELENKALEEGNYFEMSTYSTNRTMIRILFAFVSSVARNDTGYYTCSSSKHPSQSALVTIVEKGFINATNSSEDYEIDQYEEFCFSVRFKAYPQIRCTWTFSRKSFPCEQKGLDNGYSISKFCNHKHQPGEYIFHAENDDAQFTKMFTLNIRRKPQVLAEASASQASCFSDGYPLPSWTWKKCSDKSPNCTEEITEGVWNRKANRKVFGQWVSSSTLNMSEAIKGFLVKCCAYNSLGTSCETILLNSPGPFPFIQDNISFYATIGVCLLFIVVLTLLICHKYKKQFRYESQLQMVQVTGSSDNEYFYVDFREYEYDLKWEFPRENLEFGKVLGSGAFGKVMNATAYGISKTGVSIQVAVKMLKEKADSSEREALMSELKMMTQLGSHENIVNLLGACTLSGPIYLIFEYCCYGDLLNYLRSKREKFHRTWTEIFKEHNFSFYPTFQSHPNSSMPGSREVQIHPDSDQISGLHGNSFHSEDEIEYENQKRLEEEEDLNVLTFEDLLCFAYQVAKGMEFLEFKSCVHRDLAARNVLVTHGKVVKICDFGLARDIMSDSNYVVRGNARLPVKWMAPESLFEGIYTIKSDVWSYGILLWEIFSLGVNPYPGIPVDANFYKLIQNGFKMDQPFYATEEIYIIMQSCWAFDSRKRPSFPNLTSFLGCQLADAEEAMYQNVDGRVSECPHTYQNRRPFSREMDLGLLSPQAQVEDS
Description: The inhibitory activities of the example compounds according to the present invention to the FLT3-ITD enzyme were evaluated. Specifically, the compound of the present invention was reacted with a purified human FLT3-ITD enzyme (Signalchem). A composition of 40 mM Tris-HCl pH 7.4, 20 mM MgCl2, 0.5 mg/mL BSA and 50 μM DTT was used as a reaction buffer, and reactions of all test matters were performed on the reaction buffer. Upon the test, human FLT3-ITD enzyme (10 ng), purified ATP (10 μM) and a specific substrate solution were reacted at 25° C. for 1 hour, and then the enzyme activity was identified using an in vitro ADP-Glo™ kinase assay (Promega). The enzyme activity reaction solution, the ADP-Glo reaction solution and the enzyme ability detection solution were reacted in a ratio of 2:2:1, and the activity inhibition degree of the enzyme was measured as luminescence. Using the solvent-treated group that was not treated with the compound as a control group, the enzyme activity inhibition degree according to the treatment concentration of each compound was calculated based on the enzyme activity fluorescence degree, and the concentration of each compound that inhibited 50%, IC50 (nM), was determined using Prism Software (version 5.01, GraphPad).

human GST-HPK1 (1-346) = molecular target: T2, human GST-HPK1 (1-346) (Homo sapiens, UniProt Q92918); test: HPK1 enzyme inhibitory ability (ADP-Glo kinase assay); type: biochemical; settings: human GST-HPK1 3 ng, ATP 3 uM, 25° C. 2 hours
T2 construct: purified human GST-HPK1 (1-346, Signalchem) enzyme; purchased Signalchem
T2 sequence (Q92918 1-346): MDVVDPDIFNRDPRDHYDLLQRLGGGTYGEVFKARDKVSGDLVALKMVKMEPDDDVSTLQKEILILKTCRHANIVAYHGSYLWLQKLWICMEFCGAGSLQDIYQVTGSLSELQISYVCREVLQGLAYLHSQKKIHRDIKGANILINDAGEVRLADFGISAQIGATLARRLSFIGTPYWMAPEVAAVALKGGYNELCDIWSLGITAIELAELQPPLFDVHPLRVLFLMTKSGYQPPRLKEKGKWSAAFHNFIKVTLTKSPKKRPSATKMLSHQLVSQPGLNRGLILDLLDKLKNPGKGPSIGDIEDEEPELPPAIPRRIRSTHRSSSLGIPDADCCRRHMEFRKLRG
Description: In order to evaluate the inhibitory activities of the example compounds according to the present invention on the HPK1 (hematopoietic progenitor kinase 1) enzyme, the following experiment was performed. The example compounds were reacted with the purified human GST-HPK1 (1-346, Signalchem) enzyme to evaluate the enzyme inhibitory ability by the following method. As the reaction buffer, a composition of 40 mM Tris-HCl pH 7.4, 20 mM MgCl2, 0.5 mg/mL BSA and 50 uM DTT was used, and reactions of all test matters were performed on the reaction buffer. Upon the test, the human GST-HPK1 (3 ng) enzyme, the purified ATP (3 uM) and a specific substrate solution were reacted at 25° C. for 2 hours, and then the enzyme activity was identified using an in vitro ADP-Glo™ kinase assay (promega). The enzyme activity reaction solution, the ADP-Glo reaction solution and the enzyme ability detection solution were reacted in a ratio of 2:2:1 to measure luminescence. The enzyme activity inhibition degree according to the treatment concentrations of the respective compounds was calculated based on the fluorescence of the enzyme activity of the solvent control group that was not treated with the compound, where the concentration of each compound that inhibited enzyme activity inhibition by 50% was determined as an IC50 (nM) value.

Row | SMILES | GI50 (MCF-7 cells) [nM] | IC50 (human FLT3-ITD enzyme) [nM] | IC50 (human GST-HPK1 (1-346)) [nM]
1 | CN1CCN(c2ccc(Nc3nc(N4N=CCC4c4ccccc4)c4cc[nH]c4n3)cc2)CC1 (stereo not drawn) [Example 68, N-(4-(4-methylpiperazin-1-yl)phenyl)-4-(5-phenyl-4,5-dihydro-1H-pyrazol-1-yl)-7H-pyrrolo[2,3-d]pyrimidin-2-amine] | > 500 | 250 to 500 | > 500
2 | OCCN1CCN(c2ccc(Nc3nc(N4OCC[C@H]4c4ccccc4)c4cc[nH]c4n3)cc2)CC1 [Example 81, (S)-2-(4-(4-((4-(3-phenylisoxazolidin-2-yl)-7H-pyrrolo[2,3-d]pyrimidin-2-yl)amino)phenyl)piperazin-1-yl)ethan-1-ol] | > 500 | 250 to 500 | ≥ 250
3 | COc1cc(Nc2nc(N3OCC[C@H]3c3ccccc3)c3cc[nH]c3n2)ccc1N1CCN(CCO)CC1 [Example 82, (S)-2-(4-(2-methoxy-4-((4-(3-phenylisoxazolidin-2-yl)-7H-pyrrolo[2,3-d]pyrimidin-2-yl)amino)phenyl)piperazin-1-yl)ethan-1-ol] | > 500 | ≥ 250 | ≥ 250
4 | CCN1CCN(C2CCN(c3ccc(Nc4nc(N5OCC[C@H]5c5ccccc5)c5cc[nH]c5n4)cc3)CC2)CC1 [Example 85, (S)-N-(4-(4-(4-ethylpiperazin-1-yl)piperidin-1-yl)phenyl)-4-(3-phenylisoxazolidin-2-yl)-7H-pyrrolo[2,3-d]pyrimidin-2-amine] | > 500 | > 500 | ≥ 250
5 | COc1cc(Nc2nc(N3OCC[C@H]3c3ccccc3)c3cc[nH]c3n2)ccc1N1CCC(N2CCN(CCO)CC2)CC1 [Example 90, (S)-2-(4-(1-(2-methoxy-4-((4-(3-phenylisoxazolidin-2-yl)-7H-pyrrolo[2,3-d]pyrimidin-2-yl)amino)phenyl)piperidin-4-yl)piperazin-1-yl)ethan-1-ol] | > 500 | 250 to 500 | ≥ 250
6 | CN1CCC(NC(=O)c2ccc(Nc3nc(N4OCC[C@H]4c4ccccc4)c4cc[nH]c4n3)cc2)CC1 [Example 95, (S)-N-(1-methylpiperidin-4-yl)-4-((4-(3-phenylisoxazolidin-2-yl)-7H-pyrrolo[2,3-d]pyrimidin-2-yl)amino)benzamide] | > 500 | > 500 | ≥ 250
7 | COc1cc(N2CCC(N3CCN(C)CC3)CC2)ccc1Nc1nc(N2OCC[C@H]2c2ccccc2)c2c(C#N)c[nH]c2n1 [Example 121, (S)-2-((2-methoxy-4-(4-(4-methylpiperazin-1-yl)piperidin-1-yl)phenyl)amino)-4-(3-phenylisoxazolidin-2-yl)-7H-pyrrolo[2,3-d]pyrimidine-5-carbonitrile] | ≥ 250 | > 500 | > 500

More lines, now with the values ahead:

Row | GI50 (MCF-7 cells) [nM] | IC50 (human FLT3-ITD enzyme) [nM] | IC50 (human GST-HPK1 (1-346)) [nM] | SMILES
8 | > 500 | > 500 | ≥ 250 | CN1C[C@@H]2C[C@H]1CN2c1cc(Nc2nc(N3OCC[C@H]3c3ccccc3)c3cc[nH]c3n2)cc(S(C)(=O)=O)c1 [Example 91, N-(3-((1S,4S)-5-methyl-2,5-diazabicyclo[2.2.1]heptan-2-yl)-5-(methylsulfonyl)phenyl)-4-((S)-3-phenylisoxazolidin-2-yl)-7H-pyrrolo[2,3-d]pyrimidin-2-amine]
9 | > 500 | > 500 | ≥ 250 | CN1C[C@H]2C[C@@H]1CN2c1cc(Nc2nc(N3OCC[C@H]3c3ccccc3)c3cc[nH]c3n2)cc(S(C)(=O)=O)c1 [Example 92, N-(3-((1R,4R)-5-methyl-2,5-diazabicyclo[2.2.1]heptan-2-yl)-5-(methylsulfonyl)phenyl)-4-((S)-3-phenylisoxazolidin-2-yl)-7H-pyrrolo[2,3-d]pyrimidin-2-amine]
10 | > 500 | > 500 | > 500 | OCCN1CC[C@@H](Oc2cc(Nc3nc(N4OCC[C@H]4c4ccccc4)c4cc[nH]c4n3)cc(C3CC3)c2)C1 [Example 93, 2-((R)-3-(3-cyclopropyl-5-((4-((S)-3-phenylisoxazolidin-2-yl)-7H-pyrrolo[2,3-d]pyrimidin-2-yl)amino)phenoxy)pyrrolidin-1-yl)ethan-1-ol]
11 | > 500 | > 500 | > 500 | CN(C)[C@H]1CCN(c2cccc(Nc3nc(N4OCC[C@H]4c4ccccc4)c4cc[nH]c4n3)c2)C1 [Example 99, N-(3-((S)-3-(dimethylamino)pyrrolidin-1-yl)phenyl)-4-((S)-3-phenylisoxazolidin-2-yl)-7H-pyrrolo[2,3-d]pyrimidin-2-amine]
12 | > 500 | > 500 | > 500 | CN(C)[C@@H]1CCN(c2cccc(Nc3nc(N4OCC[C@H]4c4ccccc4)c4cc[nH]c4n3)c2)C1 [Example 100, N-(3-((R)-3-(dimethylamino)pyrrolidin-1-yl)phenyl)-4-((S)-3-phenylisoxazolidin-2-yl)-7H-pyrrolo[2,3-d]pyrimidin-2-amine]
13 | > 500 | > 500 | > 500 | CC1(C)OC(=O)c2ccc(Nc3nc(N4OCC[C@H]4c4ccccc4)c4cc[nH]c4n3)cc21 [Example 115, (S)-3,3-dimethyl-5-((4-(3-phenylisoxazolidin-2-yl)-7H-pyrrolo[2,3-d]pyrimidin-2-yl)amino)isobenzofuran-1(3H)-one]
14 | > 500 | > 500 | > 500 | CN(C)[C@@H]1CCN(c2cccc(Nc3nc(N4OCC[C@@H]4c4ccccc4)c4cc[nH]c4n3)c2)C1 [Example 125, N-(3-((R)-3-(dimethylamino)pyrrolidin-1-yl)phenyl)-4-((R)-3-phenylisoxazolidin-2-yl)-7H-pyrrolo[2,3-d]pyrimidin-2-amine]
